Experiment [1] relates to osteoclast differentiation. Kind of experiment: Osteoclast differentiation in co-culture of mouse bone marrow cells and calvarial osteoblasts, TRAP staining (Examples 1-7). Conditions: day 7. The format is cell-based.
Experiment [2] has as its system osteoclast differentiation. Briefly: Osteoclast differentiation in co-culture of mouse bone marrow cells and ST2 cells, TRAP staining (Examples 8-9). The format is cell-based. To be noted: for % number of osteoclast (vs. solvent control group): day 7; for activity at 0.1 µM: Mus musculus, Osteoclast, 168 h, day 7, read-out: % number of osteoclast (vs. solvent control group). A digest of the protocol:
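Bone marrow cells from 6-8-week male ddY mice were co-cultured with ST2 stromal cells under 10^−8 M vitamin D3 and 10^−8 M dexamethasone, with compounds at 0.1 μM final (0.1% DMSO control), refreshed on days 3 and 5. On day 7, TRAP-positive osteoclasts with ≥6 nuclei were counted and expressed as % of solvent control (n=4).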

Where [3] appears, read: Mus musculus, Osteoclast, 168 h, individual treatment of Compound (0.1 μM), read-out: % number of osteoclast (vs. solvent control group).
Where [4] appears, read: combination treatment of alendronic acid (0.2 μM) with compound (0.1 μM).
[5] abbreviates: combination treatment of clodronic acid (1 μM) with compound (0.1 μM).
Where [6] appears, read: combination treatment of etidronic acid (2 μM) with compound (0.1 μM).
Where [7] appears, read: combination treatment of ibandronic acid (0.1 μM) with compound (0.1 μM).
Setting [8] is: combination treatment of pamidronic acid (0.1 μM) with compound (0.1 μM).
Setting [9] is: combination treatment of risedronic acid (0.1 μM) with compound (0.1 μM).
Where [10] appears, read: combination treatment of zoledronic acid (0.01 μM) with compound (0.1 μM).
Setting [11] is: individual treatment of Compound (0.1 μM).
The mark [12] stands for this setting: Combination treatment (alendronic acid + compounds), 0.1 μM each.
The mark [13] stands for this setting: Combination treatment (risedronic acid + compounds), 0.1 μM each.
The mark [14] stands for this setting: Individual treatment (compounds), 0.1 μM.
The mark [15] stands for this setting: singly treated with 0.1 μM alendronic acid.
The mark [16] stands for this setting: singly treated with 0.1 μM risedronic acid.

“And” between values parts separate entries of the source, which are not always exact repeats. Equal entries are not always repeated. Marks after values point to notes of the source that are not given here.

The source of these data is patent publication US8008329B2 (Dong Wha Pharmaceutical Co., Ltd., priority 2008, dated 2011).

As to `CN(CCN1CCOCC1)c1nc(-c2ccc(OCCCCCOc3ccc(C(=N)NO)cc3)cc2)cs1` [Compound 119, N-hydroxy-4-[5-(4-{2-[methyl-(2-morpholinoethyl)amino]-1,3-thiazol-4-yl}phenoxy)pentyloxy]-benzamidine], the results for the activity at 0.1 µM in experiment [1] (setting [3]) and in experiment [2] (setting [14]) were 66% and 78 ± 9%, respectively. For the same compound, the “% number of osteoclast (vs. solvent control group)” value (“% number of osteoclast” below) in experiment [1] (setting [4]) was 29% and 29 ± 5.3*^#@ %; in experiment [1] (setting [5]), 47% and 47 ± 13.0*^#@ %; in experiment [1] (setting [6]), 38% and 38 ± 8.2*^#@ %; in experiment [1] (setting [7]) it was 36 ± 9.8*^#@ %; in experiment [1] (setting [8]) it was 37% and 37 ± 5.0*^#@ %; in experiment [1] (setting [9]) it was 38% and 38 ± 6.8*^#@ %. For the same compound, the “% number of osteoclast” value in experiment [1] (setting [10]) is recorded as 42 ± 8.1*^#@ %; in experiment [1] (setting [11]) it was 66 ± 8.3 %; in experiment [2] (setting [12]), 29 ± 4.9^ab %; in experiment [2] (setting [13]) it was 29 ± 8.7^ac %.

For the compound `CCCN(CCC)c1nc(-c2ccc(OCCCCCOc3ccc(C(=N)NO)cc3)cc2)c(CC)s1` [Compound 138, N-hydroxy-4-{5-[4-(2-dipropylamino-5-ethyl-1,3-thiazol-4-yl)phenoxy]pentyloxy}-benzamidine], the activity at 0.1 µM in experiment [1] (setting [3]) amounted to 71%; in experiment [2] (setting [14]) it was 57 ± 7.2%. Further, the “% number of osteoclast” value was 32% and 32 ± 8.9*^#@ % in experiment [1] (setting [4]); 54 ± 11.9*^#@ % in experiment [1] (setting [5]); 40% and 40 ± 8.4*^#@ % in experiment [1] (setting [6]); 45 ± 7.6*^#@ % in experiment [1] (setting [7]); 42% and 42 ± 6.2*^#@ % in experiment [1] (setting [8]); 35% and 35 ± 8.2*^#@ % in experiment [1] (setting [9]). In addition, the “% number of osteoclast” value is reported as 48 ± 8.9*^#@ % in experiment [1] (setting [10]), 71 ± 6.5 % in experiment [1] (setting [11]), 18 ± 6.8^ab % in experiment [2] (setting [12]) and 31 ± 3.2^ac % in experiment [2] (setting [13]).

As for `NCCCC(O)(P(=O)(O)O)P(=O)(O)O` [alendronic acid, reference compound], in experiment [1] (Mus musculus, Osteoclast, 168 h, individual treatment of alendronic acid (0.2 μM), read-out: % number of osteoclast (vs. solvent control group)), the activity at 0.2 µM was determined as 80%. Further, in experiment [1] (individual treatment of alendronic acid (0.2 μM)), the “% number of osteoclast” value is recorded as 80 ± 5.7 %. For the same compound, in experiment [2] (setting [15]), the activity at 0.1 µM was 76% and the “% number of osteoclast” value is reported as 76 ± 6.2 %.

As for `O=P(O)(O)C(O)(Cc1cccnc1)P(=O)(O)O` [risedronic acid, reference compound], the activity at 0.1 µM was ~82% in experiment [1] (Mus musculus, Osteoclast, 168 h, individual treatment of risedronic acid (0.1 μM), read-out: % number of osteoclast (vs. solvent control group)) and 69% in experiment [2] (setting [16]). Besides, the figures for the “% number of osteoclast” value in experiment [1] (individual treatment of risedronic acid (0.1 μM)) and in experiment [2] (setting [16]) were 82 ± 5.2 % and 69 ± 6.7 %, respectively.
